Laboratory results reported in US9662327B2 (AGIOS PHARMACEUTICALS, INC, priority 2011, dated 2017).
pIC50: −log10 of the molar value.

Molecular target: IDH1 R132H (Homo sapiens (Human), UniProt O75874, R132H)
Experiment: Assays for IDH1 R132H Inhibitors (NADPH/aKG, resazurin detection)
Assay type: biochemical
Details: IDH1 R132H enzyme, Table 2; read-out: IDHR132H Activity
Procedure, shortened: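 Substrate mix held 8 uM NADPH plus 2 mM aKG; buffer was 20 mM Tris pH 7.5 with 150 mM NaCl, 10 mM MgCl2, 0.03% BSA. After 50 min room-temperature reaction, NADPH remaining was detected with 30 μM resazurin mix over 5 min.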

Chain of IDH1 R132H (O75874 whole entry R132H): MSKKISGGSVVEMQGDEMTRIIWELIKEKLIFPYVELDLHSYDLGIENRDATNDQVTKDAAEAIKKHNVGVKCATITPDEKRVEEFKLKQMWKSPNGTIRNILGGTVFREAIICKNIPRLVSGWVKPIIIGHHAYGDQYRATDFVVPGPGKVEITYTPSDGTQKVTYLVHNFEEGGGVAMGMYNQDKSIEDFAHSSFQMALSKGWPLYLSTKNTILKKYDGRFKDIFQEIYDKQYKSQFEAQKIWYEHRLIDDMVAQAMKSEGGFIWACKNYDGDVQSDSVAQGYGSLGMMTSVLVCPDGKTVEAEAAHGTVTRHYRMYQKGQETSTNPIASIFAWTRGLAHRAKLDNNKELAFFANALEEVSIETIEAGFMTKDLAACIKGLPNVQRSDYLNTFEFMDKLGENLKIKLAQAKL

Structure (SMILES)	pIC50
C[C@@H]1CN(C(=O)c2ccco2)CCN1c1nc(C2CC2)c2c(c1C#N)CC(C)(C)OC2 [Compound 204, (R)-8-cyclopropyl-6-(4-(furan-2-carbonyl)-2-methylpiperazin-1-yl)-3,3-dimethyl-3,4-dihydro-1H-pyrano[3,4-c]pyridine-5-carbonitrile]	5.00 to 6.00
Cc1ncoc1C(=O)N1CCN(c2nc(C(C)C)c3c(c2C#N)CC(C)(C)OC3)C[C@H]1C(C)C [Compound 213, (R)-8-isopropyl-6-(3-isopropyl-4-(4-methyloxazole-5-carbonyl)piperazin-1-yl)-3,3-dimethyl-3,4-dihydro-1H-pyrano[3,4-c]pyridine-5-carbonitrile]	5.00 to 6.00
CC(C)c1nc(N2CCN(C(=O)Cc3ccccc3F)[C@H](C(C)C)C2)c(C#N)c2c1COC(C)(C)C2 [Compound 215, (R)-6-(4-(2-(2-fluorophenyl)acetyl)-3-isopropylpiperazin-1-yl)-8-isopropyl-3,3-dimethyl-3,4-dihydro-1H-pyrano[3,4-c]pyridine-5-carbonitrile]	5.00 to 6.00
COc1ccccc1CC(=O)N1CCN(c2nc(C(C)C)c3c(c2C#N)CC(C)(C)OC3)C[C@H]1C(C)C [Compound 216, (R)-8-isopropyl-6-(3-isopropyl-4-(2-(2-methoxyphenyl)acetyl)piperazin-1-yl)-3,3-dimethyl-3,4-dihydro-1H-pyrano[3,4-c]pyridine-5-carbonitrile]	5.00 to 6.00
CC(C)c1nc(N2CCN(C(=O)Cc3ccccn3)[C@H](C)C2)c(C#N)c2c1COC(C)(C)C2 [Compound 218, (R)-8-isopropyl-3,3-dimethyl-6-(3-methyl-4-(2-(pyridin-2-yl)acetyl)piperazin-1-yl)-3,4-dihydro-1H-pyrano[3,4-c]pyridine-5-carbonitrile]	5.00 to 6.00
CC(C)c1nc(N2CCN(C(=O)Cc3ccccc3F)[C@H](C)C2)c(C#N)c2c1COC(C)(C)C2 [Compound 219, (R)-6-(4-(2-(2-fluorophenyl)acetyl)-3-methylpiperazin-1-yl)-8-isopropyl-3,3-dimethyl-3,4-dihydro-1H-pyrano[3,4-c]pyridine-5-carbonitrile]	5.00 to 6.00
Cc1nc2ccccn2c1C(=O)N1CCN(c2nc(C(C)C)c3c(c2C#N)CC(C)(C)OC3)C[C@H]1C [Compound 220, (R)-8-isopropyl-3,3-dimethyl-6-(3-methyl-4-(2-methylimidazo[1,2-a]pyridine-3-carbonyl)piperazin-1-yl)-3,4-dihydro-1H-pyrano[3,4-c]pyridine-5-carbonitrile]	5.00 to 6.00
COc1cccc(CC(=O)N2CCN(c3nc(C(C)C)c4c(c3C#N)CC(C)(C)OC4)C[C@H]2C)c1 [Compound 221, (R)-8-isopropyl-6-(4-(2-(3-methoxyphenyl)acetyl)-3-methylpiperazin-1-yl)-3,3-dimethyl-3,4-dihydro-1H-pyrano[3,4-c]pyridine-5-carbonitrile]	5.00 to 6.00
CC(C)c1nc(N2CCN(C(=O)c3cnc4ccccn34)[C@H](C)C2)c(C#N)c2c1COC(C)(C)C2 [Compound 222, (R)-6-(4-(imidazo[1,2-a]pyridine-3-carbonyl)-3-methylpiperazin-1-yl)-8-isopropyl-3,3-dimethyl-3,4-dihydro-1H-pyrano[3,4-c]pyridine-5-carbonitrile]	5.00 to 6.00

Next, values leading:

pIC50	Structure (SMILES)
5.00 to 6.00	CC(C)c1nc(N2CCN(C(=O)c3ccco3)[C@H](c3ccccc3)C2)c(C#N)c2c1COC(C)(C)C2 [Compound 200, (R)-6-(4-(furan-2-carbonyl)-3-phenylpiperazin-1-yl)-8-isopropyl-3,3-dimethyl-3,4-dihydro-1H-pyrano[3,4-c]pyridine-5-carbonitrile]
5.00 to 6.00	C[C@H]1CN(C(=O)c2ccco2)CCN1c1nc(C2CCCCC2)c2c(c1C#N)CCOC2 [Compound 201, (S)-8-cyclohexyl-6-(4-(furan-2-carbonyl)-2-methylpiperazin-1-yl)-3,4-dihydro-1H-pyrano[3,4-c]pyridine-5-carbonitrile]
5.00 to 6.00	CC(C)c1nc(N2CCN(C(=O)c3ccco3)C[C@@H]2C)c(C#N)c2c1COC(C)(C)C2 [Compound 202, (S)-6-(4-(furan-2-carbonyl)-2-methylpiperazin-1-yl)-8-isopropyl-3,3-dimethyl-3,4-dihydro-1H-pyrano[3,4-c]pyridine-5-carbonitrile]
5.00 to 6.00	C[C@H]1CN(C(=O)c2ccco2)CCN1c1nc(C2CC2)c2c(c1C#N)CC(C)(C)OC2 [Compound 203, (S)-8-cyclopropyl-6-(4-(furan-2-carbonyl)-2-methylpiperazin-1-yl)-3,3-dimethyl-3,4-dihydro-1H-pyrano[3,4-c]pyridine-5-carbonitrile]
> 6.30	CC[C@@H]1CN(c2nc(C(C)C)c3c(c2C#N)CC(C)(C)OC3)CCN1C(=O)c1ccoc1 [Compound 205, (R)-6-(3-ethyl-4-(furan-3-carbonyl)piperazin-1-yl)-8-isopropyl-3,3-dimethyl-3,4-dihydro-1H-pyrano[3,4-c]pyridine-5-carbonitrile]
> 6.30	CC[C@@H]1CN(c2nc(C(C)C)c3c(c2C#N)CC(C)(C)OC3)CCN1C(=O)Cc1cccs1 [Compound 206, (R)-6-(3-ethyl-4-(2-(thiophen-2-yl)acetyl)piperazin-1-yl)-8-isopropyl-3,3-dimethyl-3,4-dihydro-1H-pyrano[3,4-c]pyridine-5-carbonitrile]
> 6.30	CC[C@@H]1CN(c2nc(C(C)C)c3c(c2C#N)CC(C)(C)OC3)CCN1C(=O)c1ccoc1C [Compound 207, (R)-6-(3-ethyl-4-(2-methylfuran-3-carbonyl)piperazin-1-yl)-8-isopropyl-3,3-dimethyl-3,4-dihydro-1H-pyrano[3,4-c]pyridine-5-carbonitrile]
6.00 to 6.30	COc1ccccc1CC(=O)N1CCN(c2nc(C3CC3)c3c(c2C#N)CC(C)(C)OC3)C[C@H]1C(C)C [Compound 208]
> 6.30	CC(C)[C@@H]1CN(c2nc(C3CC3)c3c(c2C#N)CC(C)(C)OC3)CCN1C(=O)Cc1ccccn1 [Compound 211]
6.00 to 6.30	CC(C)c1nc(N2CCN(C(=O)c3cocn3)[C@H](C(C)C)C2)c(C#N)c2c1COC(C)(C)C2 [Compound 212, (R)-8-isopropyl-6-(3-isopropyl-4-(oxazole-4-carbonyl)piperazin-1-yl)-3,3-dimethyl-3,4-dihydro-1H-pyrano[3,4-c]pyridine-5-carbonitrile]
6.00 to 6.30	CC(C)c1nc(N2CCN(C(=O)Cc3ccccn3)[C@H](C(C)C)C2)c(C#N)c2c1COC(C)(C)C2 [Compound 214, (R)-8-isopropyl-6-(3-isopropyl-4-(2-(pyridin-2-yl)acetyl)piperazin-1-yl)-3,3-dimethyl-3,4-dihydro-1H-pyrano[3,4-c]pyridine-5-carbonitrile]
6.00 to 6.30	Cc1oncc1C(=O)N1CCN(c2nc(C(C)C)c3c(c2C#N)CC(C)(C)OC3)C[C@H]1C [Compound 217, (R)-8-isopropyl-3,3-dimethyl-6-(3-methyl-4-(5-methylisoxazole-4-carbonyl)piperazin-1-yl)-3,4-dihydro-1H-pyrano[3,4-c]pyridine-5-carbonitrile]
6.00 to 6.30	CC(C)c1nc(N2CCN(C(=O)c3ccco3)[C@@H](c3ccccc3)C2)c(C#N)c2c1COC(C)(C)C2 [Compound 223, (S)-6-(4-(furan-2-carbonyl)-3-phenylpiperazin-1-yl)-8-isopropyl-3,3-dimethyl-3,4-dihydro-1H-pyrano[3,4-c]pyridine-5-carbonitrile]
